Reference: paper PMC9323625, “Structure–Function Insights into the Fungal Endo-Chitinase Chit33 Depict its Mechanism on Chitinous Material” (International Journal of Molecular Sciences, 2022)

Target: T1, Chit33 (Trichoderma harzianum, UniProt Q12713, D165A/E167A)
T1 construct: gene chit33 (909 bp, 321 amino acids) expressed in Pichia pastoris GS115 from CHIT33-pIB4, secreted to the extracellular fraction; 33 kDa
T1 sequence (Q12713 20-321 D165A/E167A): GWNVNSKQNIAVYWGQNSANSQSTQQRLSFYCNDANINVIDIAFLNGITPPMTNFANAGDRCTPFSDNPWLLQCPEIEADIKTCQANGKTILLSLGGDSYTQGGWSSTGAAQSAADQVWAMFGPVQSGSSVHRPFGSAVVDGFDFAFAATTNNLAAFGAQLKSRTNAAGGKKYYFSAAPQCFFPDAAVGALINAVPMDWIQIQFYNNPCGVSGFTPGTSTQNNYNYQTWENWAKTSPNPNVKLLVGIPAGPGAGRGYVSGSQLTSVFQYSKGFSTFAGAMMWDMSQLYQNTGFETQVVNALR
Experiment: X-ray crystal structure, […] Å
Assay type: binding
Conditions: crystal soaked with 18 mM NAG4 for 30 min; active site, subsites −2 to +2; inactivated double mutant

CC(=O)N[C@H]1[C@H](O[C@H]2[C@H](O)[C@@H](NC(C)=O)C(O)O[C@@H]2CO)O[C@H](CO)[C@@H](O[C@@H]2O[C@H](CO)[C@@H](O[C@@H]3O[C@H](CO)[C@@H](O)[C@H](O)[C@H]3NC(C)=O)[C@H](O)[C@H]2NC(C)=O)[C@@H]1O (stereo partly shown) [NAG4, N,N’,N’’,N’’’-acetyl chitotetraose]
X-ray crystal structure, 1.60 Å: we determined the crystal structure of the inactive double-mutant D165A/E167A with the substrate NAG4
